Tests used:
Assay type in all cases: cell-based
[1] = test system: DU-145; experiment: NCI-60 one-dose SRB screening; details: Homo sapiens, DU-145, Prostate Cancer, 10 µM one dose, 48 h, read-out: growth percentage
[2] = test system: KM12; experiment: NCI-60 one-dose SRB screening; details: Homo sapiens, KM12, Colon Cancer, 10 µM one dose, 48 h, read-out: growth percentage
[3] = test system: LOX IMVI; experiment: NCI-60 one-dose SRB screening; details: Homo sapiens, Melanoma, 10 µM one dose, 48 h, read-out: growth percentage
[4] = test system: SK-MEL-28; experiment: NCI-60 one-dose SRB screening; details: Homo sapiens, SK-MEL-28, Melanoma, 10 µM one dose, 48 h, read-out: growth percentage
[5] = test system: SK-OV-3; experiment: NCI-60 one-dose SRB screening; details: Homo sapiens, SK-OV-3, Ovarian Cancer, 10 µM one dose, 48 h, read-out: growth percentage
[6] = test system: ACHN; experiment: NCI-60 one-dose SRB screening; details: Homo sapiens, Renal Cancer, 10 µM one dose, 48 h, read-out: growth percentage
[7] = test system: HL-60(TB); experiment: NCI-60 one-dose SRB screening; details: Homo sapiens, Leukemia, 10 µM one dose, 48 h, read-out: growth percentage
[8] = test system: HOP-92; experiment: NCI-60 one-dose SRB screening; details: Homo sapiens, HOP-92, Non-Small Cell Lung Cancer, 10 µM one dose, 48 h, read-out: growth percentage
[9] = test system: SK-MEL-5; experiment: NCI-60 one-dose SRB screening; details: Homo sapiens, SK-MEL-5, Melanoma, 10 µM one dose, 48 h, read-out: growth percentage
[10] = test system: MDA-MB-468; experiment: NCI-60 one-dose SRB screening; details: Homo sapiens, MDA-MB-468, Breast Cancer, 10 µM one dose, 48 h, read-out: growth percentage
[11] = test system: EKVX; experiment: NCI-60 one-dose SRB screening; details: Homo sapiens, Non-Small Cell Lung Cancer, 10 µM one dose, 48 h, read-out: growth percentage
[12] = test system: NCI-H322M; experiment: NCI-60 one-dose SRB screening; details: Homo sapiens, Non-Small Cell Lung Cancer, 10 µM one dose, 48 h, read-out: growth percentage
[13] = test system: HCT-15; experiment: NCI-60 one-dose SRB screening; details: Homo sapiens, HCT-15, Colon Cancer, 10 µM one dose, 48 h, read-out: growth percentage
[14] = test system: CCRF-CEM; experiment: NCI-60 one-dose SRB screening; details: Homo sapiens, Leukemia, 10 µM one dose, 48 h, read-out: growth percentage
[15] = test system: SN12C; experiment: NCI-60 one-dose SRB screening; details: Homo sapiens, Renal Cancer, 10 µM one dose, 48 h, read-out: growth percentage
[16] = test system: NCI-59 human cancer cell lines; experiment: NCI-60 one-dose SRB screening, full panel and subpanels; details: for inhibition at 10 µM / activity at 10 µM: Homo sapiens; for inhibition at 10 µM / enhancement of the growth percentage (mean): full NCI-59 panel, 10 µM; for inhibition at 10 µM: read-out: mean growth inhibition % (MGI%, GI%); for activity at 10 µM: mean over the full panel, 10 µM one dose, 48 h, SRB, read-out: growth percentage, Mean
Method: The structures of the synthesized compounds 6a–h, 12a–c, 11, 13a–c, and 14a–c were submitted to the National Cancer Institute’s Developmental Therapeutics Program (NCI-DTP), and all of them were selected for preliminary in vitro anticancer activity screening against NCI-59 human cancer cell lines at a concentration of 10 µM, using the sulforhodamine B (SRB) assay to determine the growth percentage and cell viability.
The in vitro NCI-60 cell line screening assay was conducted at the National Cancer Institute (NCI), Bethesda, USA against 59 cancer cell lines representing 9 types of cancers, as reported earlier. Briefly, the human cancer cell lines were grown in RPMI 1640 medium containing 5% fetal bovine serum and 2 mM L-glutamine and inoculated into 96-well microtiter plates in 100 μL (5000 to 40,000 cells/well). Then, the plates were incubated at 37 °C, 5% CO2, 95% air, and 100% relative humidity for 24 h. After that, two plates of each cell line were fixed in situ with TCA, to represent cell population at time zero (Tz). The tested compounds were dissolved in DMSO at 400-fold and added so that the final concentration became 10 μM. The plates were then incubated for an additional 48 h followed by the addition of cold TCA to terminate the assay in case of adherent cells. Then, the cells were fixed in situ by cold 50% (w/v) TCA (50 μL; final concentration, 10% TCA) and incubated for 1 h at 4 °C. After discarding the supernatant, the plates were washed 5 times with tap water and air dried. Sulforhodamine B (SRB) solution (100 μL) at 0.4% (w/v) in 1% HOAc was added to each well, and plates were incubated for 10 min. at rt. Then, washing with 1% acetic acid was conducted 5 times to remove the unbound dye followed by air drying. After that, 10 mM trizma base was added to solubilize the bound stain, and the absorbance was read on an automated plate reader at a wavelength of 515 nm. On the other hand, the methodology for suspension cells was the same except that 50 μL of 80% TCA (final concentration, 16% TCA) was gently added to terminate the assay by fixing settled cells at the bottom of the wells. Percentage growth inhibition (GI%) was calculated as follows:
Growth percentage=Ti (test growth in the presence of compound at 10 µM )−Tz (time zero)/C (control growth)−Tz (time zero)×100 for Ti ≥ Tz;
Growth percentage=Ti (test growth in the presence of compound at 10 µM )−Tz (time zero)/Tz (time zero)×100 for Ti < Tz.
where values of 100, 40, 0, −40, and −100 mean no GI, 60% GI, no net G, 40% lethality, and all cells are dead, respectively.
Data are expressed as a one-dose mean graph of growth percentages including the mean, delta, and range.

| Structure (SMILES) | activity at 10 µM [1] [%] | activity at 10 µM [2] [%] | activity at 10 µM [3] [%] | activity at 10 µM [4] [%] | activity at 10 µM [5] [%] | activity at 10 µM [6] [%] | activity at 10 µM [7] [%] | activity at 10 µM [8] [%] | activity at 10 µM [9] [%] | activity at 10 µM [10] [%] | activity at 10 µM [11] [%] | activity at 10 µM [12] [%] | activity at 10 µM [13] [%] | activity at 10 µM [14] [%] | activity at 10 µM [15] [%] | inhibition at 10 µM [16] [%] | activity at 10 µM [16] [%] | enhancement of the growth percentage (mean) [16] |
| --- | --- | --- | --- | --- | --- | --- | --- | --- | --- | --- | --- | --- | --- | --- | --- | --- | --- | --- |
| O=c1[nH]c(CNc2ccc(NCc3c(-c4ccccc4)no[n+]3[O-])cc2)nc2c1cnn2-c1ccccc1 [14a, 3-(((4-(((4-oxo-1-phenyl-4,5-dihydro-1H-pyrazolo[3,4-d]pyrimidin-6-yl)methyl)amino)phenyl)amino)methyl)-4-phenyl-1,2,5-oxadiazole 2-oxide] | 74.6 | 73.3 | 85.5 | 77.2 | 60.6 | 70.4 | 63.1 | 85.4 | 85.3 | 33.2 | 51.3 | 80.2 | 71.2 | 57.9 | 79 | 27.9 | 72.1 | – |
| Cc1nn(-c2ccccc2)c2ncnc(Nc3ccc(OCc4c(-c5ccccc5)no[n+]4[O-])cc3)c12 [6c, 3-((4-((3-methyl-1-phenyl-1H-pyrazolo[3,4-d]pyrimidin-4-yl)amino)phenoxy)methyl)-4-phenyl-1,2,5-oxadiazole 2-oxide] | 106 | 99.8 | 101 | 102 | 104 | 97.3 | 119 | 91.2 | 90.4 | 97.1 | 90.4 | 91 | 91.5 | 97.4 | 87.9 | 1.58 to 4.57 | 96.2 | – |
| Cc1nn(-c2ccccc2)c2nc(CNc3ccc(NCc4c(-c5ccccc5)no[n+]4[O-])cc3)[nH]c(=O)c12 [14b, 3-(((4-(((3-methyl-4-oxo-1-phenyl-4,5-dihydro-1H-pyrazolo[3,4-d]pyrimidin-6-yl)methyl)amino)phenyl)amino)methyl)-4-phenyl-1,2,5-oxadiazole 2-oxide] | 90.7 | 94.5 | 97.6 | 99.2 | 85.4 | 88.8 | 93.7 | 93.2 | 108 | 66.9 | 83 | 89 | 80.6 | 78.8 | 89.4 | 8.22 | 91.8 | – |
| Nc1ccc(NCc2c(-c3ccccc3)no[n+]2[O-])cc1 [compound 11, 3-(((4-aminophenyl)amino)methyl)-4-phenyl-1,2,5-oxadiazole 2-oxide] | 112 | 103 | 107 | 101 | 105 | 104 | 95.5 | 116 | 112 | 85.3 | 109 | 103 | 104 | 83.4 | 109 | – | 107 | – |
| Cc1nc(Nc2ccc(OCc3c(-c4ccccc4)no[n+]3[O-])cc2)c2cnn(-c3ccccc3)c2n1 [6b, 3-((4-((6-methyl-1-phenyl-1H-pyrazolo[3,4-d]pyrimidin-4-yl)amino)phenoxy)methyl)-4-phenyl-1,2,5-oxadiazole 2-oxide] | 105 | 102 | 97.6 | 101 | 110 | 105 | 122 | 91.4 | 103 | 94.3 | 93.1 | 99.5 | 96.4 | 102 | 101 | – | 102 | 1–5% |
| Cc1nn(-c2ccc(Br)cc2)c2ncnc(Nc3ccc(OCc4c(-c5ccccc5)no[n+]4[O-])cc3)c12 [6g, 3-((4-((1-(4-bromophenyl)-3-methyl-1H-pyrazolo[3,4-d]pyrimidin-4-yl)amino)phenoxy)methyl)-4-phenyl-1,2,5-oxadiazole 2-oxide] | 110 | 98.6 | 95 | 99.5 | 96.2 | 88 | 115 | 86.5 | 96.5 | 97.4 | 83.5 | 94.5 | 97.2 | 98.1 | 91.3 | 1.58 to 4.57 | 98.4 | – |
| Cc1nn(-c2ccc(Br)cc2)c2nc(CNc3ccc(NCc4c(-c5ccccc5)no[n+]4[O-])cc3)[nH]c(=O)c12 [14c, 3-(((4-(((1-(4-bromophenyl)-3-methyl-4-oxo-4,5-dihydro-1H-pyrazolo[3,4-d]pyrimidin-6-yl)methyl)amino)phenyl)amino)methyl)-4-phenyl-1,2,5-oxadiazole 2-oxide] | 107 | 106 | 102 | 103 | 107 | 96.9 | 103 | 108 | 104 | 94.4 | 98.9 | 104 | 97.3 | 105 | 98.8 | – | 103 | 3.35% |
| Cc1nn(-c2ccccc2)c2nc(C(F)(F)F)nc(Nc3ccc(NCc4c(-c5ccccc5)no[n+]4[O-])cc3)c12 [12a, 3-(((4-((3-methyl-1-phenyl-6-(trifluoromethyl)-1H-pyrazolo[3,4-d]pyrimidin-4-yl)amino)phenyl)amino)methyl)-4-phenyl-1,2,5-oxadiazole 2-oxide] | 82.2 | 56.7 | 58 | 92.4 | 96.9 | 77.7 | 77.2 | 90.1 | 70.3 | 75.8 | 73.2 | 77.6 | 42 | 59.2 | 77.7 | – | 76.8 | – |
